In patent US11926613B2, “Kinase inhibitors for the treatment of central and peripheral nervous system disorders” (UNIVERSITY OF MIAMI, priority 2017, dated 2024) one finds activity and EC50 data, which are given here for ten compounds.

For experiment [1], the system named is neurons from hippocampi of E18 rat embryos. Kind of experiment: Neurite growth length (% NTL) in cultured E18 rat hippocampal neurons, 9-point dose response, 48 hours. The class given is cell-based. The conditions noted are these: Rattus norvegicus, Neuron, 48 h; for activity at 0.078 µM: 78 nM; for activity at 0.156 µM: 156 nM; for activity at 0.312 µM: 312 nM; for activity at 0.625 µM: 625 nM. The protocol: PRE-COATING CULTURE PLATES: On the day before the experiment, 96-well plates were pre-coated by plating 50 μl of Poly-D-lysine solution (PDL, 0.5 mg/mL) in each well. The next morning, the plates were washed four or five times with HBSS or PBS (150 μl/rinse), then left in buffer until cell plating
PREPARING THE CELLS: A timed pregnant rat carrying E18 embryos was euthanized using an IACUC approved method. In a laminar flow hood, the embryos were removed and placed in a petri dish containing Hank's Balanced Salt Solution (HBSS) with 20 mM HEPES, pH 7.3. Pup brains were dissected (see Meberg et al., 2003) and hippocampi were collected in 15 mL a conical tube containing Hibernate E with SM1 (2% v/v).
Dissociation media was prepared by combining 4.5 mL of Hibernate E (without SM1) with 0.5 mL of trypsin and 100 μl of DNAse solution. The medium over the hippocampi was carefully removed and replaced with dissociation solution, then incubated at 37° C. for 15-20 minutes, occasionally swirling the tube.
Using flame polished cotton plugged Pasteur pipettes, the dissociation media was removed, and then 5 mL of Hibernate E containing SM1 were added. The tube was swirled to thoroughly wash the tissue. The tissue was allowed to settle to the bottom of the tube, and the rinse solution was carefully removed. This step was repeated 5 times to dilute out trypsin and DNAse and remove any debris from lysed cells.
The final rinse media was removed from the tube and 1 pipette-full (1-2 mL) of Hibernate E with SM1 was added. Using the flame-polished Pasteur pipette (pre-wetted with rinse media), the tube was triturated until all cells had dissociated and no visible chunks of tissue remained. Fewer than ten triturations were typically performed. The volume was adjusted to 8-12 mL using Hibernate E containing SM1, the well was mixed and cell concentration was determined.
PLATING: The cells were diluted in culture media (NbActiv4 Cell-culture media) to a final concentration of 10,000 cells/mL. The HBSS was aspirated from PDL coated plates, and 150 μL of cell solution was loaded in the middle 48 wells at 1500 cells per well. Water was loaded in the outer wells to decrease evaporation from edge wells. Cells were allowed to adhere for 2 hours in tissue culture incubator prior to treatment.
TREATMENT: Compounds were diluted to various concentrations to provide 9 dose response concentrations of 20 μM, 10 μM, 5, μM, 2.5 μM, 1.25 μM, 0.625 μM, 0.3125 μM, 0.15625 μM, and 0.078125 μM. The plates were cultured for 48 hours, exposed to the compound at the various dose response concentrations.
FIXING THE CULTURES: The culture medium was removed from the plates and immediately replaced with 100-200 μl of warm (37° C.) 4% paraformaldehyde (PFA) solution in phosphate-buffered saline (PBS). The cells were fixed for 15-20 minutes at room temperature, and then rinsed with PBS (200 μl/well×3).
STAINING AND IMAGING: The PBS was removed and replaced with 100 μl of blocking/permeabilization buffer (PBS, 0.2% fish gelatin, 0.03% Triton X-100, 0.02% NaN3), then incubated overnight at 4° C. To this was added 100 μl of primary antibody solution (mouse anti-Beta III tubulin in blocking buffer) and incubate overnight at 4° C. The wells were rinsed with PBS (200 μl×3), which was then removed and replaced with 100 μl of secondary antibody solution (Goat anti-mouse Alexa 488, 10 μg/ml Hoechst 33342, 0.2% fish gelatin, 0.02% azide, in PBS). The plate was shaken gently on a rotating shaker for 2 hours, then rinsed with PBS (200 μl×5).
The plate was imaged using a Cellomics ArrayScan VTI in 2 different channels for nuclear staining (Hoechst) and cell body/neurite staining (βIII-tubulin). Typically, nine fields per well were imaged with a 5× objective and automatically traced by the Neuronal Profiling Bioapplication. To get reproducible results, at least 200-300 valid neurons were measured per condition. […]

Experiment [2] has as its system Primary Neurons. Kind of experiment: HCS neurite outgrowth assay (High Content Screening with Primary Neurons). The class given is cell-based. Particulars: Primary neuron.

What is called EC50 is the concentration at which the effect is half-maximal. Higher therefore signals a less potent agent. For the compound `Cc1ccc(O)c(C(=O)c2ccc(C(=O)N[C@@H]3CNC[C@H]3NC(=O)c3ccncc3)cc2)c1` [Example A78, N-[(3R,4R)-4-[4-(2-hydroxy-5-methylbenzoyl)benzamido]pyrrolidin-3-yl]pyridine-4-carboxamide], in experiment [1], the activity at 0.078 µM worked out at 122%, the activity at 0.156 µM turned out to be 121%, the activity at 0.312 µM is 133% and the activity at 0.625 µM was 143%. In experiment [1], the activity at 1.25 µM is 152%, the activity at 2.5 µM is 176%, the activity at 5 µM is 256% and the activity at 10 µM was 410%. In experiment [1], the activity at 20 µM is 503%. The same compound registered a half-maximal effective concentration (EC50) in experiment [2] of 7.77 µM.
Take `O=C(N[C@@H]1CCC[C@H]1NC(=O)c1ccc(C(=O)c2ccccc2)cc1)c1ccncc1` [Example A15, N-[(1R,2R)-2-(4-benzoylbenzamido)cyclopentyl]pyridine-4-carboxamide]: in experiment [1], the activity at 0.078 µM was determined as 98.5%, the activity at 0.156 µM was 106%, the activity at 0.312 µM was 111% and the activity at 0.625 µM stood at 114%. Also, in experiment [1], the activity at 1.25 µM was 110%, the activity at 2.5 µM came to 107%, the activity at 5 µM worked out at 110% and the activity at 10 µM is 122%. Also, in experiment [1], the activity at 20 µM came to 136%. Besides, in experiment [2], the EC50 was 7.84 µM.
For `COc1ccc(O)c(Cc2ccc(C(=O)N[C@@H]3CNC[C@H]3NC(=O)c3ccnc(N)n3)cc2)c1F` [Example A45, 2-amino-N-[(3R,4R)-4-{4-[(2-fluoro-6-hydroxy-3-methoxyphenyl)methyl]benzamido}pyrrolidin-3-yl]pyrimidine-4-carboxamide], in experiment [1], the activity at 0.078 µM was 96.5%, the activity at 0.156 µM amounted to 90.2%, the activity at 0.312 µM turned out to be 83.7% and the activity at 0.625 µM was found to be 87%. Also, in experiment [1], the activity at 1.25 µM was 84.8%, the activity at 2.5 µM came to 93.3%, the activity at 5 µM is 89.1% and the activity at 10 µM stood at 97.2%. Besides, the activity at 20 µM in experiment [1] was determined as 111%. The EC50 in experiment [2] is above 20 µM.
For `COc1ccc(O)c(C(=O)c2ccc(C(=O)N3CCN(C(=O)c4ccncc4)CC3)cc2)c1F` [Example A9, 3-fluoro-4-methoxy-2-{4-[4-(pyridine-4-carbonyl)piperazine-1-carbonyl]benzoyl}phenol], in experiment [1], the activity at 0.078 µM was determined as 94.5%, the activity at 0.156 µM came out at 91.5%, the activity at 0.312 µM was 90.7% and the activity at 0.625 µM was found to be 96.6%. In experiment [1], the activity at 1.25 µM is 88%, the activity at 2.5 µM is 98.9%, the activity at 5 µM came to 98.3% and the activity at 10 µM turned out to be 89.6%. For the same compound, the activity at 20 µM in experiment [1] stood at 89.1%. The response in experiment [2] was half-maximal at 4.92 µM (EC50).
Take `O=C(Nc1ccccc1NC(=O)c1ccc(C(=O)c2ccccc2)cc1)c1ccncc1` [Example A6, N-[2-(4-benzoylbenzamido)phenyl]pyridine-4-carboxamide]: in experiment [1], the activity at 0.078 µM amounted to 94.7%, the activity at 0.156 µM was 106%, the activity at 0.312 µM came out at 83% and the activity at 0.625 µM was found to be 95.4%. Also, in experiment [1], the activity at 1.25 µM stood at 94.1%, the activity at 2.5 µM is 92.9%, the activity at 5 µM is 105% and the activity at 10 µM was 107%. The activity at 20 µM in experiment [1] came to 121%. The same compound gave a half-maximal effective concentration (EC50) in experiment [2] of 1.67 µM.
Consider `Cc1cccc(C(=O)c2ccc(C(=O)N[C@@H]3CNC[C@H]3NC(=O)c3ccncc3)cc2)c1O` [Example A75, N-[(3R,4R)-4-[4-(2-hydroxy-3-methylbenzoyl)benzamido]pyrrolidin-3-yl]pyridine-4-carboxamide], for which, in experiment [1], the activity at 0.078 µM was found to be 97.1%, the activity at 0.156 µM turned out to be 93.7%, the activity at 0.312 µM amounted to 105% and the activity at 0.625 µM is 106%. Besides, in experiment [1], the activity at 1.25 µM amounted to 116%, the activity at 2.5 µM was 119%, the activity at 5 µM stood at 119% and the activity at 10 µM came to 146%. For the same compound, in experiment [1], the activity at 20 µM stood at 140%. In experiment [2], this compound returned a 50% effective concentration (EC50) of 6.57 µM.
With `COc1ccc(O)c(C(=O)c2ccc(C(=O)N[C@@H]3CNC[C@H]3NC(=O)c3cn[nH]c3)cc2)c1F` [Example A43, N-[(3R,4R)-4-[4-(2-fluoro-6-hydroxy-3-methoxybenzoyl)benzamido]pyrrolidin-3-yl]-1H-pyrazole-4-carboxamide], in experiment [1], the activity at 0.078 µM was found to be 118%, the activity at 0.156 µM came out at 118%, the activity at 0.312 µM was 115% and the activity at 0.625 µM came out at 114%. Further, in experiment [1], the activity at 1.25 µM came out at 124%, the activity at 2.5 µM was 136%, the activity at 5 µM was found to be 144% and the activity at 10 µM is 155%. The activity at 20 µM in experiment [1] was determined as 173%. Moreover, in experiment [2], the EC50 was found to be 3.11 µM.
In the case of `COc1ccc(O)c(C(=O)c2ccc(C(=O)N[C@@H]3CNC[C@H]3NC(=O)c3ccncc3)cc2)c1` [Example A77, N-[(3R,4R)-4-[4-(2-hydroxy-5-methoxybenzoyl)benzamido]pyrrolidin-3-yl]pyridine-4-carboxamide], in experiment [1], the activity at 0.078 µM stood at 118%, the activity at 0.156 µM is 125%, the activity at 0.312 µM stood at 133% and the activity at 0.625 µM was 144%. Besides, in experiment [1], the activity at 1.25 µM is 159%, the activity at 2.5 µM turned out to be 187%, the activity at 5 µM is 263% and the activity at 10 µM amounted to 469%. Besides, the activity at 20 µM in experiment [1] was 653%. Besides, the EC50 in experiment [2] was 10.4 µM.
With `COc1ccc(O)c(C(=O)c2ccc(C(=O)N[C@@H]3CCCCC[C@H]3NC(=O)c3ccncc3)cc2)c1F` [Example A25, N-[(1R,2R)-2-[4-(2-fluoro-6-hydroxy-3-methoxybenzoyl)benzamido]cycloheptyl] pyridine-4-carboxamide], in experiment [1], the activity at 0.078 µM stood at 98.9%, the activity at 0.156 µM is 97.5%, the activity at 0.312 µM was determined as 110% and the activity at 0.625 µM was determined as 111%. Also, in experiment [1], the activity at 1.25 µM is 120%, the activity at 2.5 µM is 122%, the activity at 5 µM was determined as 134% and the activity at 10 µM stood at 146%. For the same compound, the activity at 20 µM in experiment [1] is 163%. The concentration for a half-maximal effect (EC50) in experiment [2] is above 20 µM.
Turning to `O=C(Nc1ccncc1NC(=O)c1ccncc1)c1ccc(C(=O)c2ccccc2)cc1` [Example A3, N-[4-(4-benzoylbenzamido)pyridin-3-yl]pyridine-4-carboxamide], in experiment [1], the activity at 0.078 µM came out at 98.3%, the activity at 0.156 µM came to 99.9%, the activity at 0.312 µM came out at 96.3% and the activity at 0.625 µM stood at 92.6%. In experiment [1], the activity at 1.25 µM is 96.7%, the activity at 2.5 µM is 95.1%, the activity at 5 µM is 93.6% and the activity at 10 µM was determined as 92.9%. Further, the activity at 20 µM in experiment [1] turned out to be 96.6%. In experiment [2], this compound showed a half-maximal effective concentration (EC50) of 0.798 µM.
